No end group written: not given here.

Results on 4 molecules are retold here after US20140179619A1, “POLYPEPTIDE, NUCLEOTIDE SEQUENCE THEREOF, AND METHOD FOR USING THE SAME FOR PREVENTING DNA SYNTHESIS AND INHIBITING CELL PROLIFERATION” (Wuhan Yicheng Biotech, Inc., priority 2011, published 2014).

Test [1] relates to human granulocytic leukemia cells K562. Description: Growth of human leukemia tumor in mice. The settings on record: K562 subcutaneous in mice, tumor weight vs control, injection every other day 7 times, after two weeks; PTD-P15 1 mg, Glivec 10 mcg.
From the text: After 5×10^6human granulocytic leukemia cells K562 injected into the subcutaneous tissue of mice, the mice were randomly divided into five groups. […] After two weeks, the mice were killed, from which the tumors grown in the subcutaneous tissue of the mice were taken out and weighed.
A further test concerns Cells 3T3. The test can be described thus: BrdU penetration in DNA (DNA synthesis) in transfected cells. The format is cell-based. How it is done: (§1) DNA synthesis is the symbol of cell proliferation. In the next experiment, we tested the impact of P15 on DNA synthesis. Within the 15 hours after 3T3 and MCF7 transfecting pEGFP-N 1 and expressing P15-GFP plasmid for two days, the BrdU labeled […] that can penetrate in the newly synthesized DNA chain were added in cell culture fluid. The positive GFP cells in plasmid were detected and transfected with immunofluorescence technique, and the positive rate of BrdU penetration in DNA (this reflects the rate of DNA synthesis) was ascertained.

Another test has as its system Cells MCF7. The description is as above. It counts as cell-based. The method, then:
as §1

The subject of test [2] is MCF-7 (breast cancer cell line). Description: Cell cycle distribution by FCM of GFP-positive transfected cells. Particulars: Cells MCF7, GFP-positive cells sorted two days after transfection. It counts as cell-based. The method, then:
(§2) The impact of P15 on cell proliferation is tested with NIH/3T3 (fibroblast and eptithlial cells, purchased from American ATCC, Cat No. CRL-1658) and MCF-7 (breast cancer cell line, purchased from American ATCC, Cat No. HTB-22).
(§3) Plasmid used for experiment: pEGFP-P15 (to express fused protein P15-GFP); control plasmid: pEGFP-N1
(§4) After the plasmid for transfection and the lipofectamine reagent (purchased from American Invitrogen, Cat No. 11668) were mixed, the mixture stayed for 15 minutes at room temperature. Then the mixture was first introduced into cells (with a cell density of about 50%) cultured in DMEM without serum for 5 hours of cultivation at 37° C. and next into SBF with a mass concentration of 10% for 48 hours of cultivation. […] In addition, by the use of FCM, it was easy to separate and purify the positive fluorescent protein cells. The symbolic indicators to test cell proliferation such as cell cycle were used to study and testify the impact of P15 on cell proliferation, while in these experiments, only the cells that express fluorescent proteins were used as control group.
(§5) First, we used the above mentioned plasmid to transfect 3T3 and MCF7, and used FCM to sort the positive GFP cells transfected with DNA and analyzed the cycle distribution of these cells two days later.

The next test concerns NIH/3T3. The description is as above. It counts as cell-based. How it is done: as §2, §3, §4, §5
Where [3] appears, read: Cells 3T3, GFP-positive cells sorted two days after transfection.

`Cc1ccc(NC(=O)c2ccc(CN3CCN(C)CC3)cc2)cc1Nc1nccc(-c2cccnc2)n1` [Glivec]: the Inhibition ratio in test [1] was found to be 48%.

For “P15-GFP: fused protein consisted of P15 and GFP, P15 connected to the end N of GFP, expressed from plasmid pEGFP-P15 (MPYSTELIFYIEMDP-{GFP})”, the “Positive BrdU cells” value in the test on Cells 3T3 (Cells 3T3, BrdU 15 hours, two days after transfection) came to 12.5%; with Cells MCF7 (Cells MCF7, BrdU 15 hours, two days after transfection), 5.2%. Also, the Inhibition ratio is reported as 76.8% in the test on Cells 3T3 (Cells 3T3, DNA synthesis, relative to GFP) and 83.4% in the test with Cells MCF7 (Cells MCF7, DNA synthesis, relative to GFP). Moreover, the G0/G1 in test [2] is reported as 85.6%; with NIH/3T3 (setting [3]), 52.1%. The G2/M in test [2] was determined as 3.3%; in the test with NIH/3T3 (setting [3]), 25.7%. For the same molecule, the S in test [2] turned out to be 11.1%; in the test with NIH/3T3 (setting [3]), 22.1%.

As to “asparaginic acid-arginine-arginine-asparaginic acid-leucine-tyrosine-asparaginic acid-asparaginic acid-asparaginic acid-asparaginic acid-lysine-asparaginic acid-arginine-methionine-alanine-glycine-threonine-methionine [Control polypeptide]”, the Inhibition ratio in test [1] is recorded as −2%.

Turning to “methionine-proline-tyrosine-serine-threonine-glutamic acid-leucine-isoleucine-phenylalanine-tyrosine-isoleucine-glutamic acid-methionine-asparaginic acid-proline [P15]”, in the test on NIH/3T3 (expression of P15 in 3T3 and MCF7), the “impact on cell apoptosis” value is on record as “no obvious impact on cell apoptosis”.
